# Legend:
# Leishmania panamensis [1] = test: Leishmanicidal activity against intracellular amastigotes of Leishmania (Viannia) panamensis MHOM/CO/87/UA140pIR-GFP infected in human U937 cells assessed as decrease of intracellular parasite load after 72 hrs; format: functional, organism-based, U-937
# [2] = Selectivity index, ratio of LC50 for human U937 cells to EC50 for intracellular amastigotes of Leishmania (Viannia) panamensis MHOM/CO/87/UA140pIR-GFP; format: toxicity, cell-based, U-937
# U-937 = test: (§1) Cytotoxicity against human U937 cells assessed as cell viability after 72 hrs by MTT assay; format: cell-based; settings: u-937, 72 h, read-out: LC50 (the source's name)
# [3] = as §1; format: cell-based, U-937; settings: U937 cells, read-out: LC50
# Leishmania panamensis [4] = test: Leishmanicidal activity against intracellular amastigotes of Leishmania (Viannia) panamensis MHOM/CO/87/UA140pIR-GFP infected in human U937 cells assessed as decrease of intracellular parasite load at 10 ug/ml after 72 hrs; format: functional
# Trypanosoma cruzi [5] = test: Trypanocidal activity against intracellular amastigotes of Trypanosoma cruzi Tulahuen infected in human U937 cells assessed as reduction of viability of intracellular amastigotes by measuring beta-galactosidase activity at 20 ug/ml after 72 hrs by spectrophotometry analysis; format: functional; settings: U-937, 72 h
# Leishmania panamensis [6] = test: Leishmanicidal activity against intracellular amastigotes of Leishmania (Viannia) panamensis MHOM/CO/87/UA140pIR-GFP infected in human U937 cells assessed as decrease of intracellular parasite load at 20 ug/ml after 72 hrs; format: functional; settings: U-937, 72 h
# Trypanosoma cruzi [7] = test: Trypanocidal activity against intracellular amastigotes of Trypanosoma cruzi Tulahuen infected in human U937 cells assessed as reduction of viability of intracellular amastigotes by measuring beta-galactosidase activity after 72 hrs by spectrophotometry analysis; format: functional, organism-based; settings: U-937, 72 h
# [8] = Selectivity index, ratio of LC50 for human U937 cells to EC50 for intracellular amastigotes of Trypanosoma cruzi Tulahuen; format: toxicity, cell-based, U-937
# Trypanosoma cruzi [9] = test: Trypanocidal activity against intracellular amastigotes of Trypanosoma cruzi Tulahuen infected in human U937 cells assessed as reduction of viability of intracellular amastigotes by measuring beta-galactosidase activity at 5 ug/ml after 72 hrs by spectrophotometry analysis; format: functional; settings: U-937, 72 h
# Leishmania panamensis [10] = test: Leishmanicidal activity against intracellular amastigotes of Leishmania (Viannia) panamensis MHOM/CO/87/UA140pIR-GFP infected in human U937 cells assessed as decrease of intracellular parasite load at 5 ug/ml after 72 hrs; format: functional; settings: U-937, 72 h
# Leishmania major = test: Antileishmanial activity against Leishmania major; format: functional, organism-based
# Leishmania panamensis [11] = test: Leishmanicidal activity against intracellular amastigotes of Leishmania (Viannia) panamensis MHOM/CO/87/UA140pIR-GFP infected in human U937 cells assessed as decrease of intracellular parasite load at 1 ug/ml after 72 hrs; format: functional; settings: U-937, 72 h
# Trypanosoma cruzi [12] = test: Trypanocidal activity against intracellular amastigotes of Trypanosoma cruzi Tulahuen infected in human U937 cells assessed as reduction of viability of intracellular amastigotes by measuring beta-galactosidase activity at 10 ug/ml after 72 hrs by spectrophotometry analysis; format: functional; settings: U-937, 72 h
# Leishmania panamensis [13] = test: Leishmanicidal activity against intracellular amastigotes of Leishmania (Viannia) panamensis MHOM/CO/87/UA140pIR-GFP infected in human U937 cells assessed as decrease of intracellular parasite load at 0.05 ug/ml after 72 hrs; format: functional; settings: U-937, 72 h
# [14] = Leishmania panamensis, MHOM/CO/87/UA140pIR-GFP, U-937, 72 h, read-out: EC50
Molecule,CC50 at 72 h [3] [µM],inhibition at 20 µg/mL (Trypanosoma cruzi [5]) [%],inhibition at 20 µg/mL (Leishmania panamensis [6]) [%],EC50 (Leishmania panamensis [1]; [14]) [µg/mL],selectivity ratio [2],further results
MEGLUMINE ANTIMONATE [listing 1 of 2 here],,,,,,EC50 (Leishmania panamensis [1]; u-937): 6.3 µg/mL; Ratio ([2]; u-937): 78.6; CC50 (U-937): 6 µM
O=C(N/N=C/c1cccc(O)c1O)c1ccnc2ccccc12,47.5,27.4,,,,"inhibition at 10 µg/mL (Leishmania panamensis [4]; U-937, 72 h): 47.4%"
O=C(N/N=C/c1cc(O)ccc1O)c1ccnc2ccccc12,> 651,20.7,26.1,,,
O=C(N/N=C/c1ccc(O)c(O)c1O)c1ccc2ccccc2n1,221,36.1,68.2,15.4,4.6,
O=C(N/N=C/c1ccccc1O)c1ccc2ccccc2n1,56,,16.8,,,EC50 (Trypanosoma cruzi [7]): 1.4 µg/mL; selectivity ratio [8]: 11.6; inhibition at 5 µg/mL (Trypanosoma cruzi [9]): 50.4%
MEGLUMINE ANTIMONATE [listing 2 of 2 here],,,,,,inhibition (Leishmania panamensis [4]; U-937): 79.4%
O=C(N/N=C/c1ccc(O)cc1O)c1nccc2ccccc12,28.6,,,3.4,2.6,inhibition at 5 µg/mL (Leishmania panamensis [10]): 62.6%
CCN(CC)NC(=O)c1ccc(OCc2ccccc2)cc1,,,,,,IC50 (Leishmania major): 21 µM
O=C(N/N=C/c1ccc(O)cc1O)c1ccc2ccccc2n1,11.7,,,0.8,4.5,EC50 (Trypanosoma cruzi [7]): 6.6 µg/mL; selectivity ratio [8]: 0.5; inhibition at 1 µg/mL (Leishmania panamensis [11]): 64.7%; inhibition at 5 µg/mL (Trypanosoma cruzi [9]): 41.5%
O=C(N/N=C/c1cc(O)ccc1O)c1ccc2ccccc2n1,159,24,64,37.2,2.8,
O=C(N/N=C/c1cccc(O)c1O)c1ccc2ccccc2n1,99.6,31,75.7,6.5,4.7,
O=C(N/N=C/c1ccc(O)c(O)c1O)c1ccnc2ccccc12,347,15.7,21.3,,,
O=C(N/N=C/c1ccc(O)cc1O)c1ccnc2ccccc12,34.5,,,,,inhibition at 10 µg/mL (Trypanosoma cruzi [12]): 27.7%; EC50 (Trypanosoma cruzi [7]): 20.8 µg/mL; selectivity ratio [8]: 0.5
C[C@@H]1[C@H](O)[C@@H](C)/C=C/C=C/C=C/C=C/C=C/C=C/C=C/[C@H](O[C@@H]2O[C@H](C)[C@@H](O)[C@H](N)[C@@H]2O)C[C@@H]2O[C@](O)(C[C@@H](O)C[C@@H](O)[C@H](O)CC[C@@H](O)C[C@@H](O)CC(=O)O[C@H]1C)C[C@H](O)[C@H]2C(=O)O [AMPHOTERICIN B],45.6,,,,1050,inhibition at 0.05 µg/mL (Leishmania panamensis [13]): 76%
O=C(Cn1ccnc1[N+](=O)[O-])NCc1ccccc1 [BENZNIDAZOLE],,87.6,,,,EC50 (Trypanosoma cruzi [7]): 10.5 µg/mL; selectivity ratio [8]: 17

# — ChEMBL document CHEMBL3612000, “Synthesis, leishmanicidal, trypanocidal and cytotoxic activity of quinoline-hydrazone hybrids” (Eur J Med Chem, 2015)
